Reference: patent publication US20170107577A1, “Determining Cancer Aggressiveness, Prognosis and Responsiveness to Treatment” (THE COUNCIL OF THE QUEENSLAND INSTITUTE OF MEDICAL RESEARCH, priority 2014, published 2017)
Entries after “also recorded” stand apart in the source; their conditions may differ.

Experiments:
[1] = test system: breast cancer cell lines (TNBC and non-TNBC); test: Cell survival (CellTiter 96 MTS/MTA assay) of breast cancer cell lines after drug treatment; type: cell-based; settings: 6 days; for survival of cells, combination of TTKi with docetaxel: very low (sub-lethal) doses, TNBC cell lines which overexpress TTK vs cell lines which do not
Method: FIG. 5: Therapeutic targets in the aggressiveness gene list. (A) The TNBC cell lines, MDA-MB-231, SUM159PT and Hs578T were treated with control siRNA (Scrambled, Sc CTRL) or siRNA targeting the specified genes and the survival of these cells was compared on day 6. Data shown is the average from the three cell lines where each cell line was treated in triplicate. * p<0.05, ** p<0.01 and *** <0.001 from One-Way ANOVA analysis performed using GraphPad® Prism. (B) A panel of breast cancer cell lines was used to prepare lysates for immunoblotting of TTK. Tubulin was used as the loading control. (C) Dose response curves for the treatment of breast cancer cell lines in the absence or presence of escalating doses of the TTK inhibitor (TTKi) AZ3146. The survival of cells was measured using the CellTitre® MTS/MTA assay carried out 6 days after treatment. Percentage survival (n=3 per dose) was calculated as the percentage of the signal from treated cells to that from control cells. […]
FIG. 7: TTK associates with aggressive subtypes and is a therapeutic target. […] The survival of cells was measured using the MTS/MTA assay as described in Methods. *** p<0.001 comparing the combination to single agents and to non-TNBC cell lines from Two-Way Anova in GraphPad® Prism. […]
Breast cancer cell lines were obtained from ATCC™ (VA, USA) and cultured as per ATCC™ instructions. […] Six days after siRNA knockdown or after drug treatments the survival of cells in comparison to control was determined using the CellTiter 96® Assay as per manufacturer instructions (Promega Corporation, WI, USA). For immunoblotting, standard protocols were used and membranes were probed with antibodies against TTK (anti-MPS1 mouse monoclonal antibody [N1] ab11108 (Abcam, Cambridge), and γ-tubulin (Sigma-Aldrich®) then developed using chemiluminescence reagent plus (Milipore, MA, USA). Flow cytometry to quantify apoptosis was performed using Annexin V-Alexa488 and 7-AAD (Life Technologies) as per manufacturer instruction using BD FACSCanto II™ flow cytometer (BD Biosciences, CA, USA).

MDA-MB-231 cells = test: Apoptosis assay by flow cytometry (Annexin V / 7-AAD); type: cell-based; settings: MDA-MB-231, collected at 96 hours
Text: FIG. 7: TTK associates with aggressive subtypes and is a therapeutic target. (A) Kaplan-Meier survival curves are shown for Grade 3 tumors, lymph node positive patients (LN^+) and LN^+ patients with grade 3 tumors. Log-rank Test and p-value were used for these survival curves. For patients with TNBC, and HER2, survival was statistically significant using the Gehan-Breslow-Wilcoxon test (p-values marked by asterisks) which gives more weight to deaths at early time points. […] Survival curves and statistical analyses were performed using GraphPad® Prism. (B) TNBC and non-TNBC cell lines were treated for 6 days with the specified concentrations of docetaxel (doc) alone, TTK inhibitor (TTKi) alone of the combinations. The survival of cells was measured using the MTS/MTA assay as described in Methods. *** p<0.001 comparing the combination to single agents and to non-TNBC cell lines from Two-Way Anova in GraphPad® Prism. (C) MDA-MB-231 cells were treated with docetaxel or TTKi alone or in combination and collected at 96 hours to perform apoptosis assays by flow cytometry. […]
Breast cancer cell lines were obtained from ATCC™ (VA, USA) and cultured as per ATCC™ instructions. […] Six days after siRNA knockdown or after drug treatments the survival of cells in comparison to control was determined using the CellTiter 96® Assay as per manufacturer instructions (Promega Corporation, WI, USA). […]

CC(=O)O[C@@]12CO[C@@H]1C[C@H](O)[C@@]1(C)C(=O)[C@H](O)C3=C(C)[C@@H](OC(=O)[C@H](O)[C@@H](NC(=O)OC(C)(C)C)c4ccccc4)C[C@@](O)([C@@H](OC(=O)c4ccccc4)[C@H]21)C3(C)C [docetaxel]
survival of cells, combination of TTKi with docetaxel [1]: synergized
apoptotic cell death, combination of TTKi with docetaxel (MDA-MB-231 cells): induced apoptotic cell death

AZ3146
sensitivity (survival of cells) to the TTK inhibitor ([1]; panel of breast cancer cell lines, TNBC cell lines vs other cell lines): effective against TNBC cell lines; also recorded: TNBC cell lines were more sensitive
survival of cells, combination of TTKi with docetaxel [1]: synergized with docetaxel
apoptotic cell death, combination of TTKi with docetaxel (MDA-MB-231 cells): induced apoptotic cell death
